According to patent publication US20160257651A1, “NOVEL COMPOUND WITH ANTIBACTERIAL ACTIVITY” (priority 2013, published 2016):
In brackets after ≈: the same amount, converted by molar mass. Like-named read-outs stand apart in the source and are kept apart here.

Experiments:
[1] = system: S. aureus FDA209P (ATCC 6538P); assay: microbe, parasite or virus in culture; format: cell-based, Staphylococcus aureus; conditions: quinolone-susceptible MSSA, ParC 80S, GyrA 84S
Method: (§1) Then, the cell suspension was diluted 500 times with CAMHB mentioned above.

S. aureus Mu50 = assay: microbe, parasite or virus in culture; format: cell-based, Staphylococcus aureus; conditions: for MIC ratio (Mu50 MIC/FDA209P MIC): MIC for S. aureus Mu50 / MIC for S. aureus FDA209P; for MIC: S. aureus Mu50, quinolone-resistant MRSA, ParC S80F, GyrA S84L
Method: as §1

E. faecium NCTC12202 = assay: MIC against Enterococcus bacteria; format: cell-based, Enterococcus faecium
Method: (§2) Antibacterial activities of the compound J-131CP against Enterococcus bacteria (Enterococcus faecium and Enterococcus faecalis) were examined by the following methods.
(§3) The compound J-131CP and quinolones were prepared in the same manner as that of Test Example 1-1.
(§4) Cell suspensions were prepared in the same manner as that of Test Example 1-1 described in the section of measurement of MIC in Test Example 1-1, except that the Enterococcus bacterium strains mentioned in Table 8 were used instead of Staphylococcus aureus, and MICs of the compound J-131CP and quinolones as control were determined for the strains in the same manner as that of Test Example 1-1 described in the section of measurement of MIC in Test Example 1-1. In Table 8, the amino acid substitution mutations in QRDR of the strains are underlined.

E. faecium RPR2 = assay: MIC against Enterococcus bacteria; format: cell-based, Enterococcus faecium
Method: as §2, §3, §4

E. faecalis NCTC12201 = assay: MIC against Enterococcus bacteria; format: cell-based; conditions: quinolone-susceptible
Method: as §2, §3, §4

E. faecalis 36-15722 = assay: MIC against Enterococcus bacteria; format: cell-based, Enterococcus faecalis; conditions: E. faecalis 36-15722, quinolone-resistant, ParC 80Ile, GyrA 84Ile
Method: as §2, §3, §4

S. pneumoniae BCLSP37 = assay: MIC against pneumococcus, CAMHB with 5 mass % LHB; format: cell-based, Streptococcus pneumoniae; conditions: quinolone-resistant, ParC 79Phe, GyrA 85Lys
Method: (§5) The S. pneumoniae strains used for this test belong to any one of the categories of penicillin-susceptible pneumococcus (penicillin-susceptible Streptococcus pneumoniae, PSSP), penicillin-intermediate pneumococcus (penicillin-intermediate Streptococcus pneumoniae, PISP), and penicillin-resistant pneumococcus (penicillin-resistant Streptococcus pneumoniae, PRSP).
(§6) The lysed horse blood was prepared by adding sterilized water to horse sterile defibered blood (produced by Nippon Bio-Supp. Center) at a ratio of 1:1, subjecting the mixture to freezing and thawing 5 times, then centrifuging the mixture twice at 10,000 rpm for 20 minutes, and filtering the supernatant through a filter.
(§7) The S. pneumoniae strains mentioned in Table 11 were each cultured overnight at 37° C. on a blood agar medium as stationary culture. The blood agar medium was prepared by adding 5 mass % ovine sterile defibered blood (produced by Nippon Bio-Supp. Center) to a heart infusion agar medium (produced by EIKEN CHEMICAL). Each S. pneumoniae strain cultured overnight at 37° C. as stationary culture was further subcultured overnight at 37° C. on fresh blood agar medium as stationary culture. After completion of the culture, cells of each pneumococcus strain were collected with a swab, and suspended in physiological saline, and the suspension was adjusted with physiological saline to show absorbance of 0.08 to 0.13 at 625 nm as measured with an absorbance meter (produced by Amersham), and further diluted 200 times with CAMHB containing 5 mass % LHB.
(§8) In Table 11, the amino acid substitution mutations in QRDR of the strains are underlined.

S. pneumoniae KBSP11 = assay: MIC against pneumococcus, CAMHB with 5 mass % LHB; format: cell-based, Streptococcus pneumoniae
Method: as §5, §6, §7, §8

E. coli strain 1708 = assay: Antibacterial activity against Escherichia coli
Source text: (§9) The numerical values in the tables indicate MIC (mg/L), Res means resistant bacterium, and Sus means susceptible bacterium.
(§10) Antibacterial activities against Escherichia coli of the compounds shown Table 19 were examined by the following method.
(§11) After completion of the culture, the cells were suspended in fresh TBS to prepare a cell suspension showing an absorbance of 0.3 at 578 nm.

E. coli strain 1709 = assay: Antibacterial activity against Escherichia coli
Source text: as §9, §10, §11

[2] = system: E. coli strain 1708 plus PABN; assay: Antibacterial activity against Escherichia coli in combination with efflux pump inhibitor PAβN; conditions: E coli plus PABN 40 mg/L, strain 1708, Quinolone Res
Source text: as §9, §10, §11

[3] = system: E. coli strain 1709 plus PABN; assay: as above; conditions: E coli plus PABN 40 mg/L, strain 1709, Quinolone Sus
Source text: as §9, §10, §11

[4] = Staphylococcus aureus, ATCC 6538P / FDA209P / MSSA, read-out: MIC
[5] = Enterococcus faecium, NCTC 12202 / VRE
[6] = Enterococcus faecalis, NCTC 12201 / VRE
[7] = Enterococcus faecalis, 3615722, read-out: MIC
[8] = Streptococcus pneumoniae, BCLSP37, S. pneumoniae BCLSP37, PSSP, read-out: MIC

Compound | MIC [1, 4] | MIC ratio (Mu50 MIC/FDA209P MIC) (S. aureus Mu50) | MIC (S. aureus Mu50; Staphylococcus aureus, MRSA) | MIC (E. faecium NCTC12202; [5]) | MIC (E. faecium RPR2; Enterococcus faecium, RPR2) | MIC (E. faecalis NCTC12201; [6]) | MIC (E. faecalis 36-15722; [7]) | MIC (S. pneumoniae BCLSP37; [8]) | MIC (S. pneumoniae KBSP11; Streptococcus pneumoniae, PRSP) | MIC (E. coli strain 1708) | MIC (E. coli strain 1709) | MIC [2] | MIC [3] | further results
Nc1ccc(-c2cc3c(cc2F)c(CO)cc(=O)n3C2CC2)cc1 [J-132CP, 7-(4-aminophenyl)-1-cyclopropyl-6-fluoro-4-(hydroxymethyl)hydroquinolin-2-one] | 0.5 mg/L (≈ 1.54 µM) | 1 | 0.5 mg/L (≈ 1.54 µM) | 16 mg/L (≈ 49.3 µM) | 8 mg/L (≈ 24.7 µM) | 2 mg/L (≈ 6.17 µM) | 2 mg/L (≈ 6.17 µM) | 4 mg/L (≈ 12.3 µM) | 2 mg/L (≈ 6.17 µM) |  |  |  |  | 
NCc1cc(=O)n(C2CC2)c2cc(-c3ccc(O)cc3)c(F)cc12 [J-139, 4-(aminomethyl)-1-cyclopropyl-6-fluoro-7-(4-hydroxyphenyl)hydroquinolin-2-one] | 0.5 mg/L (≈ 1.54 µM) | 1 | 0.5 mg/L (≈ 1.54 µM) | 8 mg/L (≈ 24.7 µM) | 8 mg/L (≈ 24.7 µM) | 1 mg/L (≈ 3.08 µM) | 4 mg/L (≈ 12.3 µM) | 4 mg/L (≈ 12.3 µM) | 1 mg/L (≈ 3.08 µM) |  |  |  |  | 
CC1NCc2cc(-c3cc4c(cc3F)c(CO)cc(=O)n4C3CC3)ccc21 (stereo not shown) [J-144, 1-cyclopropyl-6-fluoro-4-(hydroxymethyl)-7-(1-methylisoindolin-5-yl)hydroquinolin-2-one] | 0.5 mg/L (≈ 1.37 µM) | 2 | 1 mg/L (≈ 2.74 µM) | 8 mg/L (≈ 22 µM) | 4 mg/L (≈ 11 µM) | 0.5 mg/L (≈ 1.37 µM) | 0.5 mg/L (≈ 1.37 µM) | 0.5 mg/L (≈ 1.37 µM) | 0.25 mg/L (≈ 0.686 µM) |  |  |  |  | 
CC1COc2c(-c3ccc(O)cc3)c(F)cc3c(CO)cc(=O)n1c23 (stereo not shown) [J-149, 9-fluoro-7-(hydroxymethyl)-10-(4-hydroxyphenyl)-3-methyl-2H-[1,4]oxazino[2,3,4-ij]quinolin-5(3H)-one] | 0.5 mg/L (≈ 1.46 µM) | 1 | 0.5 mg/L (≈ 1.46 µM) | 128 mg/L (≈ 375 µM) | 16 mg/L (≈ 46.9 µM) | 0.5 mg/L (≈ 1.46 µM) | 0.5 mg/L (≈ 1.46 µM) | 8 mg/L (≈ 23.4 µM) | 4 mg/L (≈ 11.7 µM) |  |  |  |  | 
O=c1cc(CO)c2ccc(-c3ccc(O)cc3)c(F)c2n1C1CC1 [J-154, 1-cyclopropyl-8-fluoro-4-(hydroxymethyl)-7-(4-hydroxyphenyl)hydroquinolin-2-one] | 0.5 mg/L (≈ 1.54 µM) | 0.5 | 0.25 mg/L (≈ 0.768 µM) | 16 mg/L (≈ 49.2 µM) | 8 mg/L (≈ 24.6 µM) | 4 mg/L (≈ 12.3 µM) | 2 mg/L (≈ 6.15 µM) | 8 mg/L (≈ 24.6 µM) | 8 mg/L (≈ 24.6 µM) |  |  |  |  | 
O=c1cc(CO)c2cc(F)c(-c3ccc(O)cc3)c(F)c2n1C1CC1 [J-155] | 0.25 mg/L (≈ 0.728 µM) |  | 0.13 mg/L (≈ 0.379 µM) | 16 mg/L (≈ 46.6 µM) | 8 mg/L (≈ 23.3 µM) | 1 mg/L (≈ 2.91 µM) | 1 mg/L (≈ 2.91 µM) | 1 mg/L (≈ 2.91 µM) | 12 mg/L (≈ 35 µM) | 128 mg/L (≈ 373 µM) | 8 mg/L (≈ 23.3 µM) | 0.5 mg/L | ≦0.06 mg/L | 
COc1c(-c2ccc(O)cc2)c(F)cc2c(CO)cc(=O)n(C3CC3)c12 [J-156] | 0.5 mg/L (≈ 1.41 µM) |  | 0.5 mg/L (≈ 1.41 µM) |  |  | 2 mg/L (≈ 5.63 µM) | 2 mg/L (≈ 5.63 µM) | 2 mg/L (≈ 5.63 µM) | 4 mg/L (≈ 11.3 µM) | 128 mg/L (≈ 360 µM) | 128 mg/L (≈ 360 µM) | 2 mg/L | 0.1 mg/L | 
O=c1cc(CO)c2cc(F)c(-c3ccc(O)cc3)c(Cl)c2n1C1CC1 [J-161] | 0.25 mg/L (≈ 0.695 µM) |  | 0.5 mg/L (≈ 1.39 µM) | 16 mg/L (≈ 44.5 µM) | 8 mg/L (≈ 22.2 µM) | 1 mg/L (≈ 2.78 µM) | 1 mg/L (≈ 2.78 µM) | 4 mg/L (≈ 11.1 µM) | 2 mg/L (≈ 5.56 µM) | 128 mg/L (≈ 356 µM) | 16 mg/L (≈ 44.5 µM) | 1 mg/L | 0.13 mg/L | 
Nc1ccc(-c2cc3c(cc2F)c(CO)cc(=O)n3C2CC2)cc1 [J-166] |  |  |  |  |  |  |  |  |  | 128 mg/L (≈ 395 µM) | 8 mg/L (≈ 24.7 µM) | 0.5 mg/L | ≦0.06 mg/L | MIC [1]: 1 mg/L (≈ 3.08 µM); MIC (S. aureus Mu50): 1 mg/L (≈ 3.08 µM); MIC (E. faecium NCTC12202; E. faecium NCTC12202, VRE, quinolone-susceptible): 16 mg/L (≈ 49.3 µM); MIC (E. faecium RPR2; E. faecium RPR2, quinolone-resistant, ParC 82Ile, GyrA 84Ile 88Lys): 8 mg/L (≈ 24.7 µM); MIC (E. faecalis NCTC12201; E. faecalis NCTC12201, VRE): 1 mg/L (≈ 3.08 µM); MIC (E. faecalis 36-15722): 2 mg/L (≈ 6.17 µM); MIC (S. pneumoniae BCLSP37; S. pneumoniae BCLSP37, PSSP): 2 mg/L (≈ 6.17 µM); MIC (S. pneumoniae KBSP11; S. pneumoniae KBSP11, PRSP, quinolone-susceptible): 2 mg/L (≈ 6.17 µM)
O=c1cc(CO)c2cc(F)c(-c3ccccc3)cc2n1C1CC1 [J-168] | 2 mg/L (≈ 6.47 µM) |  | 2 mg/L (≈ 6.47 µM) |  |  |  |  |  |  | 128 mg/L (≈ 414 µM) | 16 mg/L (≈ 51.7 µM) | 0.5 mg/L | ≦0.06 mg/L | 
NOCc1cc(=O)n(C2CC2)c2cc(-c3ccc(O)cc3)c(F)cc12 [J-174] | 2 mg/L (≈ 5.88 µM) |  | 1 mg/L (≈ 2.94 µM) |  |  | 4 mg/L (≈ 11.8 µM) | 8 mg/L (≈ 23.5 µM) |  |  | 128 mg/L (≈ 376 µM) | 64 mg/L (≈ 188 µM) | 4 mg/L | 0.5 mg/L | 
O=c1cc(CO)c2cc(F)c(-c3ccc(O)c(O)c3)cc2n1C1CC1 [J-176] | 2 mg/L (≈ 5.86 µM) |  | 1 mg/L (≈ 2.93 µM) | 8 mg/L (≈ 23.4 µM) | 4 mg/L (≈ 11.7 µM) | 2 mg/L (≈ 5.86 µM) | 2 mg/L (≈ 5.86 µM) | 8 mg/L (≈ 23.4 µM) | 4 mg/L (≈ 11.7 µM) | 128 mg/L (≈ 375 µM) | 32 mg/L (≈ 93.7 µM) |  |  | 
